Reference: patent publication US5466682A, “Acylamino-alkyliden-hydroxy-bisphosphonic acids esters and salts thereof, wherein the acyl group is derived from an acid having antiinflammatory activity” (Istituto Gentili S.p.A., priority 1991, dated 1995)

Experiments:
[1] = tested on: bone calcium loss induced by retinoid; experiment: Bone calcium loss induced by retinoid in thyroparathyroidectomized rat (plasma Ca); assay type: in vivo, rat (male); conditions: thyroparathyroidectomized rats, retinoid s.c. 3 days, 24 hours after last administration; for Plasmatic Ca increase after retinoid adm.: controls 1.11 ± 0.03; for % inhibition (of plasmatic Ca increase after retinoid): versus controls
Protocol: Male rats weighing about […] are thyroparathyroidectomyzed under Nembutal anaesthesia. The animals are treated with thyroxine on alternate days during all the test. 7 Days after surgery, blood is withdrawn by means of intracardiac puncture and Ca is determined on plasma. […] 24 Hours after the last administration, animals are killed and blood is recovered to determine Ca again.
BONE CALCIUM LOSS INDUCED BY RETINOID IN RAT

Carrageenin Oedema = Carrageenin Oedema in Rat (% protection of paw oedema); assay type: in vivo, rat (S.D. male); conditions: subcutaneous; for % Protection 2nd hour: 2nd hour after carrageenin; for % Protection 4th hour: 4th hour after carrageenin; for % Protection 6th hour: 6th hour after carrageenin
Protocol: Carrageenin Oedema in Rat
Carrageenin+Ibuprofen (11 and 5.5 mg/kg)
Carrageenin+compound of example 8 (Br-Ax) (25.0 and 12.5 mg/kg)
Carrageenin+compound of example 7 (Br-Ab) (25.0 and 12.5 mg/kg)
Note: Ibuprofen doses are equimolar to the corresponding Br-Ab and Br-Ax doses.
S.D. male rats weighing 160-180 g
1) Control - (Carrageenin only)
Each group consisted of 5 males, trying to obtain the most homogeneous total weight for each group. The animals were inoculated subcutaneously with the test solutions homogenized in 5% gum Arabic which had been sterilized by filtration with "Acrodisc" Gelman with […] pores.
After 1 hour the animals were […] 0.1 ml of 1% carrageenin in sterile saline. Carrageenin was kept under stirring by means of a magnetic stirred, to make it as homogeneous as possible.
At the same time, the basal paw volumes were determined by means of a plethysmograph, so as to make possible to repeat the measurements in the most reliable way in the subsequent hours.
2 Hours after carrageenin inoculation, the measure of paw volumes was determined (2nd hour). Subsequently, said measurement was effected at the 4th and 6th hours from inoculation. After that, the % protection was calculated by means of the following formula: [formula]

Compound	Plasmatic Ca increase after retinoid adm. [1] [mmol/lt]	% inhibition (of plasmatic Ca increase after retinoid) [1] [%]	% Protection 2nd hour (Carrageenin Oedema; 12.5 mg/kg) [%]	% Protection 4th hour (Carrageenin Oedema; 12.5 mg/kg) [%]	% Protection 6th hour (Carrageenin Oedema; 12.5 mg/kg) [%]	% Protection 2nd hour (Carrageenin Oedema; 25.0 mg/kg) [%]	% Protection 4th hour (Carrageenin Oedema; 25.0 mg/kg) [%]	% Protection 6th hour (Carrageenin Oedema; 25.0 mg/kg) [%]	% Protection 2nd hour (Carrageenin Oedema; 5.5 mg/kg) [%]	% Protection 4th hour (Carrageenin Oedema; 5.5 mg/kg) [%]	% Protection 6th hour (Carrageenin Oedema; 5.5 mg/kg) [%]	% Protection 2nd hour (Carrageenin Oedema; 11.0 mg/kg) [%]	% Protection 4th hour (Carrageenin Oedema; 11.0 mg/kg) [%]	% Protection 6th hour (Carrageenin Oedema; 11.0 mg/kg) [%]
CC(C)Cc1ccc(C(C)C(=O)NCCCC(O)(P(=O)(O)O)P(=O)(O)O)cc1 (stereo not shown) [Br--Ab, [4-[2-(4-Isobutylphenyl)-propionyl]-amino-1-hydroxybutylidene]-diphosphonicacid]	0.62 ± 0.03	44.1	31	28	30	68	57	38						
CC(C)Cc1ccc(C(C)C(=O)NCCCCCC(O)(P(=O)(O)O)P(=O)(O)O)cc1 (stereo not shown) [Br--Ax, [6-[2-(4-Isobutylphenyl)-propionyl]-amino-1-hydroxyhexylidene]-diphosphonicacid]	0.75 ± 0.17	32.4	41	36	48	42	21	56						
CC(C)Cc1ccc(C(C)C(=O)O)cc1 (stereo not shown) [Ibuprofen, ibuprofen, reference compound]									18	3	4	21	25	28
